# Source: US10538528B2, “5H-pyrrolo[2,3-D]pyrimidin-6(7H)-one derivative” (Taiho Pharmaceutical Co., Ltd., priority 2016, dated 2020)
# Columns and labels:
# Format in all cases: biochemical
# [1] = molecular target: Rsk1 (Homo sapiens (Human), UniProt Q15418); test: Inhibitory effects on Rsk1 kinase activity (QSS Assist FP assay kit); settings: Rsk1, ATP 30 μM; read-out: Rsk inhibitory activity IC50
# Experimental: Inhibitory activity of the compound according to the present invention on Rsk1 kinase activity in vitro was assayed using the QSS Assist™ FP assay kit (Carna Biosciences, Inc.).
# In the inhibition assay of inhibitory activity of the compound, the test compound was diluted by serial dilution with dimethyl sulfoxide (DMSO). Subsequently, an Rsk1 protein, a substrate peptide (final concentration: 100 nM), magnesium chloride (final concentration: 10 mM), ATP (final concentration: 30 μM), and the solution of the test compound in DMSO (DMSO final concentration: 5%) were added to the kinase reaction buffer (20 mM HEPES (pH 7.4), 2 mM dithiothreitol, 0.01% Tween-20), and the mixture was incubated at 25° C. for 40 minutes to perform the kinase reaction. The IMAP Progressive Binding Reagent diluted to 400-fold with the IMAP Progressive Binding Buffer A (Molecular Devices, LLC) was added to terminate the kinase reaction.
# [2] = molecular target: human Akt1 (Homo sapiens (Human), UniProt P31749); test: Inhibitory effects on Akt1 kinase activity (TR-FRET, biotinylated Crosstide); settings: Akt1, ATP 150 μM, pre-incubation 120 minutes at 25° C.; read-out: AKT inhibitory activity IC50
# Experimental: Akt1 was prepared and assays of inhibitory activity of the compound according to the present invention against Akt1 kinase activity in vitro were conducted according to the method described in Biochem. J., vol. 385, pp. 399-408, 2005 and Cancer Res., vol. 68, pp. 2366-2374, 2008. In the preparation of Akt1 protein, human Akt1 tagged with the middle T antigen was expressed in an insect cell Sf9, Akt1 was prepared through affinity purification and activation by PDK1, and the resultant was stored at −80° C. until the inhibition assays of the compounds. In the inhibition assay of the compounds, Akt1 and the compound according to the present invention were subjected to pre-incubation at 25° C. for 120 minutes in a reaction buffer (15 mM Tris-HCl, pH 7.5, 0.01% Tween-20, 2 mM DTT). Subsequently, biotinylated Crosstide (biotin-[…], Millipore), MgCl2, and ATP were added as substrates at the final concentration of 500 nM, 10 mM, and 150 μM, respectively, and the reaction was allowed to proceed at 25° C. for 60 minutes. EDTA was added to the final concentration of 40 mM to terminate the reaction, a detection liquid containing the Eu-anti-phospho-Crosstide antibody (PerkinElmer) and SureLight APC-SA (PerkinElmer) at the final concentration of 0.5 nM and 62.5 nM, respectively was added, and the reaction was allowed to proceed at room temperature for 2 hours. In the end, the fluorescence levels irradiated with an excitation light of 337 nm were assayed at two different wavelength levels (i.e., 620 nm and 665 nm) using PI-HERAstar FS (BMG LABTECH) or PHERAstar (BMG LABTECH). The level of the phosphorylation reaction was determined on the basis of the ratio of fluorescence levels at two wavelength levels, and the concentration of the compound at which phosphorylation could be inhibited by 50% was defined as the IC50 level (nM) and shown in Table 2.
# As reference compounds, conventional Comparative Example A (WO 2010/056563 (Example 31)) and Comparative Example B having inhibitory activity against Akt were used.
# [3] = molecular target: S6K1 (Homo sapiens (Human), UniProt P23443); test: Inhibitory effects on S6K1 kinase activity (QSS Assist FP assay kit); settings: S6K1, ATP 25 μM; read-out: S6K inhibitory activity IC50
# Experimental: Inhibitory activity of the compound according to the present invention on S6K1 kinase activity in vitro was assayed using the QSS Assist™ FP assay kit (Carna Biosciences, Inc.).
# In the inhibition assay for inhibitory activity of the compound, the test compound was diluted by serial dilution with dimethyl sulfoxide (DMSO). Subsequently, an S6K protein, a substrate peptide (final concentration: 100 nM), magnesium chloride (final concentration: 5 mM), ATP (final concentration: 25 μM), and the solution of the test compound in DMSO (final DMSO concentration: 5%) were added to the kinase reaction buffer (20 mM HEPES (pH 7.4), 2 mM dithiothreitol, 0.01% Tween-20), and the mixture was incubated at 25° C. for 30 minutes to perform the kinase reaction. The IMAP Progressive Binding Reagent diluted to 400-fold with the IMAP Progressive Binding Buffer A (Molecular Devices, LLC) was added thereto to terminate the kinase reaction. The reaction product was allowed to stand at room temperature in the dark for 120 minutes and assayed with the use of PHERAstar (BMG LABTECH; excitation wavelength: 485 nm; detection wavelength: 520 nm). The level of phosphorylation reaction was determined based on the degree of fluorescence polarization, and the concentration of the compound at which phosphorylation could be inhibited by 50% was defined as the IC50 level (nM) and shown in Table 4.
# Chain of S6K1 (P23443 whole entry): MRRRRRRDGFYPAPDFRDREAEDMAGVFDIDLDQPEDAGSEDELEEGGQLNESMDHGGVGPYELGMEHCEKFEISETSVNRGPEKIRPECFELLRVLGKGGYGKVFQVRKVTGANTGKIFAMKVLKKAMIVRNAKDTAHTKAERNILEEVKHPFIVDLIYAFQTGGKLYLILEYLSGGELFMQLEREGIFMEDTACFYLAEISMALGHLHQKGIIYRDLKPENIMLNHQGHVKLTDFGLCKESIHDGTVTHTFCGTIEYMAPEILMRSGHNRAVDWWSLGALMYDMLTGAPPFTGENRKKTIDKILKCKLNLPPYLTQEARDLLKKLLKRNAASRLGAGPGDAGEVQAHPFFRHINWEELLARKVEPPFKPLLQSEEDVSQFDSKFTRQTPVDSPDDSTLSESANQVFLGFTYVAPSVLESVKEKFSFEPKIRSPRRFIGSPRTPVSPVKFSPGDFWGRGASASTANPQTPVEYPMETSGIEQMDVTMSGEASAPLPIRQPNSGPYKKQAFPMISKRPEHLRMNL
# Chain of Rsk1 (Q15418 whole entry): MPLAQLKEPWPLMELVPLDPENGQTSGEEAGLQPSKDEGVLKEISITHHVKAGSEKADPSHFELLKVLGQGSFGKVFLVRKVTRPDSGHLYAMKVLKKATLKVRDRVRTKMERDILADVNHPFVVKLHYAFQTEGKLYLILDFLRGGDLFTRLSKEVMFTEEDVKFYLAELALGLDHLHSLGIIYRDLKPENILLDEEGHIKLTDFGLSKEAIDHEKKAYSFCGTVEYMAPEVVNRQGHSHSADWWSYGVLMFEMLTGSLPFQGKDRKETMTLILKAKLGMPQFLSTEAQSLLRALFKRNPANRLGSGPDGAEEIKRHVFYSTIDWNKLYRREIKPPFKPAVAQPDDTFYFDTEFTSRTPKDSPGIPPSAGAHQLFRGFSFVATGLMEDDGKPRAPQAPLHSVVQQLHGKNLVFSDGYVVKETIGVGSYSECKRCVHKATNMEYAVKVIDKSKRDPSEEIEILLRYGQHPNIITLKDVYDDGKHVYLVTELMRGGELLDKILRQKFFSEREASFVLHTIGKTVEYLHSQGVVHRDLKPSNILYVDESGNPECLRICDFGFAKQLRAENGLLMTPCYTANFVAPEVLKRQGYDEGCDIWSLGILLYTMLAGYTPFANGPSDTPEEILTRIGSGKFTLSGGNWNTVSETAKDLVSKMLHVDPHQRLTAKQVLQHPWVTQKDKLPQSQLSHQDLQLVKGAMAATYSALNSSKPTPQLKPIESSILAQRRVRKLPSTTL
# Chain of human Akt1 (P31749 whole entry): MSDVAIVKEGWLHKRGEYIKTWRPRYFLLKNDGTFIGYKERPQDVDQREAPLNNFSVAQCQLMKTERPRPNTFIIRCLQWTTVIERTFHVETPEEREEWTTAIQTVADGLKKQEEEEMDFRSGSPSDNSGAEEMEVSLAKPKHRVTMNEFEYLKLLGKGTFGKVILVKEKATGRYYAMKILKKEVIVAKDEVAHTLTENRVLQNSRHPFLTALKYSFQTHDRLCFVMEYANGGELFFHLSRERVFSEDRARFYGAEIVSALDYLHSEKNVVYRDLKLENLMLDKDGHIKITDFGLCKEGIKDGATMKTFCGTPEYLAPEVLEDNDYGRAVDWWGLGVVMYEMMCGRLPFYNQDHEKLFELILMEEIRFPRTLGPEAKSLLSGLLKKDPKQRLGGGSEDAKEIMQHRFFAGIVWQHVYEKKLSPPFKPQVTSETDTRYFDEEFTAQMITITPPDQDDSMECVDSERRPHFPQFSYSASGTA
IC50 [1] [nM],IC50 [2] [nM],IC50 [3] [nM],Compound
1.2,4.8,0.5,"CC(C)NCCNc1ccc(-c2noc(C(F)(F)F)n2)nc1C1CCN(c2ncnc3c2C(C)(C)C(=O)N3)CC1 [Compound 42, 4-(4-(3-((2-(Isopropylamino)ethyl)amino)-6-(5-(trifluoromethyl)-1,2,4-oxadiazol-3-yl)pyridin-2-yl)piperidin-1-yl)-5,5-dimethyl-5H-pyrrolo[2,3-d]pyrimidin-6(7H)-one]"
–,–,0.4,"Cc1cc(-c2ccc(NCCN3CCCC3)c(C3CCN(c4ncnc5c4C(C)(C)C(=O)N5)CC3)n2)n(C)n1 [Compound 3, 4-(4-(6-(1,3-Dimethyl-1H-pyrazol-5-yl)-3-((2-(pyrrolidin-1-yl)ethyl)amino)pyridin-2-yl)piperidin-1-yl)-5,5-dimethyl-5H-pyrrolo[2,3-d]pyrimidin-6(7H)-one]"
1.3,4,0.7,"COc1cncc(-c2ccc(NCCN(C)C)c(C3CCN(c4ncnc5c4C(C)C(=O)N5)CC3)n2)c1 (stereo not shown) [Compound 21, 4-(4-(5-((2-(Dimethylamino)ethyl)amino)-5′-methoxy-[2,3′-bipyridin]-6-yl)piperidin-1-yl)-5-methyl-5H-pyrrolo[2,3-d]pyrimidin-6(7H)-one]"
–,–,0.8,"CC1C(=O)Nc2ncnc(N3CCN(c4nc(-c5cncc(F)c5)ccc4NCCN(C)C)CC3)c21 (stereo not shown) [Compound 29, 4-(4-(5-((2-(Dimethylamino)ethyl)amino)-5′-fluoro-[2,3′-bipyridin]-6-yl)piperazin-1-yl)-5-methyl-5H-pyrrolo[2,3-d]pyrimidin-6(7H)-one]"
–,1.8,–,"Cc1ncccc1-c1ccc(NCCN2CCCC2)c(C2CCN(c3ncnc4c3C(C)C(=O)N4)CC2)n1 (stereo not shown) [Compound 22, 5-Methyl-4-(4-(2′-methyl-5-((2-(pyrrolidin-1-yl)ethyl)amino)-[2,3′-bipyridin]-6-yl)piperidin-1-yl)-5H-pyrrolo[2,3-d]pyrimidin-6(7H)-one]"
1.1,–,0.3,"CN(C)CCNc1ccc(-c2cc(Cl)nn2C)nc1C1CCN(c2ncnc3c2C(C)(C)C(=O)N3)CC1 [Compound 9, 4-(4-(6-(3-Chloro-1-methyl-1H-pyrazol-5-yl)-3-((2-(dimethylamino)ethyl)amino)pyridin-2-yl)piperidin-1-yl)-5,5-dimethyl-5H-pyrrolo[2,3-d]pyrimidin-6(7H)-one]"
1.5,–,0.3,"CC1(C)C(=O)Nc2ncnc(N3CCC(c4nc(-c5ccc(F)nc5)ccc4NCCN4CCCC4)CC3)c21 [Compound 2, 4-(4-(6′-Fluoro-5-((2-(pyrrolidin-1-yl)ethyl)amino)-[2,3′-bipyridin]-6-yl)piperidin-1-yl)-5,5-dimethyl-5H-pyrrolo[2,3-d]pyrimidin-6(7H)-one]"
–,2.7,–,"CC1C(=O)Nc2ncnc(N3CCC(c4nc(-c5ncco5)ccc4NCCN4CCCC4)CC3)c21 (stereo not shown) [Compound 25, 5-Methyl-4-(4-(6-(oxazol-2-yl)-3-((2-(pyrrolidin-1-yl)ethyl)amino)pyridin-2-yl)piperidin-1-yl)-5H-pyrrolo[2,3-d]pyrimidin-6(7H)-one]"
–,–,0.4,"Cc1nnc(-c2ccc(NCCN3CCCC3)c(C3CCN(c4ncnc5c4C(C)(C)C(=O)N5)CC3)n2)s1 [Compound 36, 5,5-Dimethyl-4-(4-(6-(5-methyl-1,3,4-thiadiazol-2-yl)-3-((2-(pyrrolidin-1-yl)ethyl)amino)pyridin-2-yl)piperidin-1-yl)-5H-pyrrolo[2,3-d]pyrimidin-6(7H)-one]"
0.9,–,0.3,"CN(C)CCNc1ccc(-c2nnc(C(F)F)s2)nc1C1CCN(c2ncnc3c2C(C)(C)C(=O)N3)CC1 [Compound 38, 4-(4-(6-(5-(Difluoromethyl)-1,3,4-thiadiazol-2-yl)-3-((2-(dimethylamino)ethyl)amino)pyridin-2-yl)piperidin-1-yl)-5,5-dimethyl-5H-pyrrolo[2,3-d]pyrimidin-6(7H)-one]"
1.5,–,0.4,"CC1(C)C(=O)Nc2ncnc(N3CCC(c4nc(-c5nnc(C(F)(F)F)o5)ccc4NC[C@@H]4CCCN4)CC3)c21 [Compound 35, (S)-5,5-Dimethyl-4-(4-(3-((pyrrolidin-2-yl-methyl)amino)-6-(5-(trifluoromethyl)-1,3,4-oxadiazol-2-yl)pyridin-2-yl)piperidin-1-yl)-5H-pyrrolo[2,3-d]pyrimidin-6(7H)-one]"
0.9,–,0.3,"CC(C)NCCNc1ccc(-c2cc(C(F)(F)F)nn2C)nc1C1CCN(c2ncnc3c2C(C)(C)C(=O)N3)CC1 [Compound 10, 4-(4-(3-((2-(Isopropylamino)ethyl)amino)-6-(1-methyl-3-(trifluoromethyl)-1H-pyrazol-5-yl)pyridin-2-yl)piperidin-1-yl)-5,5-dimethyl-5H-pyrrolo[2,3-d]pyrimidin-6(7H)-one]"
–,–,0.3,"CC(C)NCCNc1cc(F)c(-c2cncc(F)c2)nc1C1CCN(c2ncnc3c2C(C)(C)C(=O)N3)CC1 [Compound 28, 4-(4-(3,5′-Difluoro-5-((2-(isopropylamino)ethyl)amino)-[2,3′-bipyridin]-6-yl)piperidin-1-yl)-5,5-dimethyl-5H-pyrrolo[2,3-d]pyrimidin-6(7H)-one]"
–,–,0.4,CC(C)(C)NCCNc1ccc(-c2cnn(C(F)F)c2)nc1C1CCN(c2ncnc3c2C(C)(C)C(=O)N3)CC1 [Compound 4]
1,–,0.4,"Cc1nc(C)c(-c2ccc(NCCNC(C)C)c(C3CCN(c4ncnc5c4C(C)(C)C(=O)N5)CC3)n2)s1 [Compound 6, 4-(4-(6-(2,4-Dimethylthiazol-5-yl)-3-((2-(isopropylamino)ethyl)amino)pyridin-2-yl)piperidin-1-yl)-5,5-dimethyl-5H-pyrrolo[2,3-d]pyrimidin-6(7H)-one]"
1.7,–,0.3,"COc1cncc(-c2ccc(NCCN3CCCC3)c(C3CCN(c4ncnc5c4C(C)(C)C(=O)N5)CC3)n2)c1 [Compound 7, 4-(4-(5′-Methoxy-5-((2-(pyrrolidin-1-yl)ethyl)amino)-[2,3′-bipyridin]-6-yl)piperidin-1-yl)-5,5-dimethyl-5H-pyrrolo[2,3-d]pyrimidin-6(7H)-one]"
1.8,–,0.3,"CCNCCNc1ccc(-c2cncc(F)c2)nc1C1CCN(c2ncnc3c2C(C)(C)C(=O)N3)CC1 [Compound 12, 4-(4-(5-((2-(Ethylamino)ethyl)amino)-5′-fluoro[2,3′-bipyridin]-6-yl)piperidin-1-yl)-5,5-dimethyl-5H-pyrrolo[2,3-d]pyrimidin-6(7H)-one]"
1.7,–,0.3,"CC1(C)C(=O)Nc2ncnc(N3CCC(c4nc(-c5cncc(F)c5)ccc4NCCN4CCCC4)CC3)c21 [Compound 8, 4-(4-(5′-Fluoro-5-((2-(pyrrolidin-1-yl)ethyl)amino)-[2,3′-bipyridin]-6-yl)piperidin-1-yl)-5,5-dimethyl-5H-pyrrolo[2,3-d]pyrimidin-6(7H)-one]"
